Measurements taken from patent US20140328809A1, “METHODS OF INDUCING CHONDROGENESIS IN MESENCHYMAL STEM CELLS USING SYNTHETIC TRITERPENOIDS” (TRUSTEES OF DARTMOUTH COLLEGE, priority 2011, published 2014).

How the values were obtained:
[1] = tested on: SOX-9; experiment: Quantitative RT-PCR analysis on calvaria: SOX-9; format: cell-based, mouse; details: 7 days of culture, normalized to control = 1.00
Procedure: (§1) All chemicals were from Sigma-Aldrich. Primers for RT-PCR were from Applied Biosystems. The isolation of calvaria was essentially performed as described previously (Garrett, 2003; Garret et al., 2003). The calvaria were cultured in Biggers, Gwatkins, Judah medium supplemented with 1 mg/mL of bovine serum albumin (Cohn fraction V), 100 U/mL each of penicillin/streptomycin, and 0.292 mg/mL of glutaimine. On Day 1, the calvaria were treated with CDDO-Im or CDDO-EA. On Day 4, the medium was replaced with fresh medium, again containing either CDDO-Im or CDDO-EA. On Day 7, the calvaria were collected and either stored at −80° C. for further RNA analysis or fixed in 10% buffered formalin for 24 h and transferred to 80% ethanol for histological analysis.
(§2) After 7 days of culture, RNA was isolated from the calvaria and quantitative RT-PCR analysis was performed for more than 15 different markers including: SOX9 (a transcription factor specific for cartilage), collagen type II (alpha 1), all three isoforms of TGF-β, BMPs 2 and 4, BMP receptor II, Smads 3, 4, 6, and 7, tissue inhibitors of metalloproteinases (TIMP-1 and TIMP-2), and matrix metalloproteinase-9 (MMP-9). […] Both triterpenoids are strong inhibitors of the expression of MMP-9; CDDO-EA (200 nM), caused almost 80% inhibition of the expression of this metalloproteinase, which is known to be involved in the degradation of cartilage (Shinoda et al., 2008).

[2] = tested on: Col II alpha1; experiment: Quantitative RT-PCR analysis on calvaria: Col II alpha1; format: cell-based, mouse; details: 7 days of culture, normalized to control = 1.00
Procedure: as §1, §2

[3] = tested on: TGF-β1; experiment: Quantitative RT-PCR analysis on calvaria: TGF-β1; format: cell-based, mouse; details: 7 days of culture, normalized to control = 1.00
Procedure: as §1, §2

[4] = tested on: TGF-β2; experiment: Quantitative RT-PCR analysis on calvaria: TGF-β2; format: cell-based, mouse; details: 7 days of culture, normalized to control = 1.00
Procedure: as §1, §2

[5] = tested on: TGF-β3; experiment: Quantitative RT-PCR analysis on calvaria: TGF-β3; format: cell-based, mouse; details: 7 days of culture, normalized to control = 1.00
Procedure: as §1, §2

[6] = tested on: BMP-2; experiment: Quantitative RT-PCR analysis on calvaria: BMP-2; format: cell-based, mouse; details: 7 days of culture, normalized to control = 1.00
Procedure: as §1, §2

[7] = tested on: BMP-4; experiment: Quantitative RT-PCR analysis on calvaria: BMP-4; format: cell-based, mouse; details: 7 days of culture, normalized to control = 1.00
Procedure: as §1, §2

[8] = tested on: BMPRII; experiment: Quantitative RT-PCR analysis on calvaria: BMPRII; format: cell-based, mouse; details: 7 days of culture, normalized to control = 1.00
Procedure: as §1, §2

[9] = tested on: Smad3; experiment: Quantitative RT-PCR analysis on calvaria: Smad3; format: cell-based, mouse; details: 7 days of culture, normalized to control = 1.00
Procedure: as §1, §2

[10] = tested on: Smad4; experiment: Quantitative RT-PCR analysis on calvaria: Smad4; format: cell-based, mouse; details: 7 days of culture, normalized to control = 1.00
Procedure: as §1, §2

[11] = tested on: Smad6; experiment: Quantitative RT-PCR analysis on calvaria: Smad6; format: cell-based, mouse; details: 7 days of culture, normalized to control = 1.00
Procedure: as §1, §2

[12] = tested on: Smad7; experiment: Quantitative RT-PCR analysis on calvaria: Smad7; format: cell-based, mouse; details: 7 days of culture, normalized to control = 1.00
Procedure: as §1, §2

[13] = tested on: TIMP-1; experiment: Quantitative RT-PCR analysis on calvaria: TIMP-1; format: cell-based, mouse; details: 7 days of culture, normalized to control = 1.00
Procedure: as §1, §2

[14] = tested on: TIMP-2; experiment: Quantitative RT-PCR analysis on calvaria: TIMP-2; format: cell-based, mouse; details: 7 days of culture, normalized to control = 1.00
Procedure: as §1, §2

[15] = tested on: MMP-9; experiment: Quantitative RT-PCR analysis on calvaria: MMP-9; format: cell-based, mouse; details: for MMP-9 expression (quantitative RT-PCR): 7 days of culture, normalized to control = 1.00
Procedure: as §1, §2

[16] = tested on: newborn mouse calvaria; experiment: Histological analysis (toluidine blue) of chondrogenesis in newborn mouse calvarial organ cultures; format: cell-based; details: 200 nM, 7 days, FIG. 1a, at least 3 sets of replicate experiments
Procedure: as §1
(§3) After fixation for 24 h, the calvaria were decalcified in EDTA, embedded in paraffin, and cut into 4 μm sections. The sections were stained either with modified hematoxylin and eosin or with toluidine blue (1% in 70% ethanol for 20 min, followed by destaining in 70%, 90%, and 100% ethanol for 15 seconds), placed in xylene twice, and then mounted (Garret, 2003). Procedures for immunofluroescence were performed essentially as previously described (Medici et al., 2010). […]

[17] = tested on: collagen type II (COL2A1); experiment: Immunohistochemical analysis of collagen type II in calvaria; format: cell-based, mouse; details: 200 nM, FIG. 1b
Procedure: as §1, §3

[18] = tested on: SOX9; experiment: Western blot of chondrocyte marker SOX9 in bone marrow-derived MSCs; format: cell-based, human; details: 100 nM for 7 days; MSCs in chondrogenic culture medium; not detectable in control
Procedure: (§4) Human bone marrow-derived stromal cells (ScienCell Research Laboratories), which contain a population of responsive mesenchymal stem cells, were grown in mesenchymal stem cell medium (ScienCell Research Laboratories). MSCs were serum-starved 24 hours prior to all experimental conditions. The synthesis of the synthetic triterpenoids, CDDO-Im and CDDO-EA, have been previously described (Sporn et al., 2011).
(§5) For directed chondrocytic differentiation, MSCs were grown in StemPro chondrogenic culture medium (Invitrogen) prepared by the technique of Kassem (2004), which is incorporated herein by reference. See also Medici et al. (2010), which is also incorporated herein by reference. CDDO-Im and CDDO-EA were added to the cultures at a concentration of 100 nM for 7 days. Western blot analysis was performed using the following antibodies at concentrations (and using protocols) recommended by the respective manufacturers: SOX9, COL2A1 (Santa Cruz Biotechnology), Aggrecan (Abcam), β-actin (Sigma-Aldrich). β-actin was used as a loading control. HRP-conjugated IgG TrueBlot reagents (eBioscience) were used at a dilution of 1:1000.

[19] = tested on: COL2A1; experiment: Western blot of chondrocyte marker COL2A1 in bone marrow-derived MSCs; format: cell-based, human; details: 100 nM for 7 days; MSCs in chondrogenic culture medium; not detectable in control
Procedure: as §4, §5

[20] = tested on: Aggrecan; experiment: Western blot of chondrocyte marker Aggrecan in bone marrow-derived MSCs; format: cell-based, human; details: 100 nM for 7 days; MSCs in chondrogenic culture medium; not detectable in control
Procedure: as §4, §5

Q: Which results are given for CCNC(=O)[C@]12CCC(C)(C)C[C@H]1[C@H]1C(=O)C=C3[C@@]4(C)C=C(C#N)C(=O)C(C)(C)[C@@H]4CC[C@@]3(C)[C@]1(C)CC2 [CDDO-EA, CDDO-Ethyl amide]?
A: SOX-9 expression (quantitative RT-PCR) ([1]; 50 nM): 1.64 ± 0.17; SOX-9 expression (quantitative RT-PCR) ([1]; 200 nM): 2.62 ± 0.33; SOX-9 expression (quantitative RT-PCR) ([1]; 500 nM): 3.12 ± 0.38; Col II alpha1 expression (quantitative RT-PCR) ([2]; 50 nM): 4.12 ± 1.78; Col II alpha1 expression (quantitative RT-PCR) ([2]; 200 nM): 5.45 ± 1.13; Col II alpha1 expression (quantitative RT-PCR) ([2]; 500 nM): 3.18 ± 0.71; TGF-β1 expression (quantitative RT-PCR) ([3]; 50 nM): 1.17 ± 0.09; TGF-β1 expression (quantitative RT-PCR) ([3]; 200 nM): 1.47 ± 0.24; TGF-β1 expression (quantitative RT-PCR) ([3]; 500 nM): 1.74 ± 0.17; TGF-β2 expression (quantitative RT-PCR) ([4]; 50 nM): 1.36 ± 0.13; TGF-β2 expression (quantitative RT-PCR) ([4]; 200 nM): 1.61 ± 0.11; TGF-β2 expression (quantitative RT-PCR) ([4]; 500 nM): 1.88 ± 0.09; TGF-β3 expression (quantitative RT-PCR) ([5]; 50 nM): 1.39 ± 0.07; TGF-β3 expression (quantitative RT-PCR) ([5]; 200 nM): 1.56 ± 0.13; TGF-β3 expression (quantitative RT-PCR) ([5]; 500 nM): 1.44 ± 0.11; BMP-2 expression (quantitative RT-PCR) ([6]; 50 nM): 1.53 ± 0.20; BMP-2 expression (quantitative RT-PCR) ([6]; 200 nM): 2.52 ± 0.29; BMP-2 expression (quantitative RT-PCR) ([6]; 500 nM): 5.66 ± 0.67; BMP-4 expression (quantitative RT-PCR) ([7]; 50 nM): 1.28 ± 0.12; BMP-4 expression (quantitative RT-PCR) ([7]; 200 nM): 1.47 ± 0.13; BMP-4 expression (quantitative RT-PCR) ([7]; 500 nM): 2.49 ± 0.35; BMPRII expression (quantitative RT-PCR) ([8]; 50 nM): 1.50 ± 0.14; BMPRII expression (quantitative RT-PCR) ([8]; 200 nM): 1.71 ± 0.19; BMPRII expression (quantitative RT-PCR) ([8]; 500 nM): 2.24 ± 0.22; Smad3 expression (quantitative RT-PCR) ([9]; 50 nM): 1.14 ± 0.12; Smad3 expression (quantitative RT-PCR) ([9]; 200 nM): 1.35 ± 0.07; Smad3 expression (quantitative RT-PCR) ([9]; 500 nM): 1.93 ± 0.16; Smad4 expression (quantitative RT-PCR) ([10]; 50 nM): 1.06 ± 0.03; Smad4 expression (quantitative RT-PCR) ([10]; 200 nM): 1.37 ± 0.12; Smad4 expression (quantitative RT-PCR) ([10]; 500 nM): 1.89 ± 0.12; Smad6 expression (quantitative RT-PCR) ([11]; 50 nM): 1.09 ± 0.04; Smad6 expression (quantitative RT-PCR) ([11]; 200 nM): 1.77 ± 0.24; Smad6 expression (quantitative RT-PCR) ([11]; 500 nM): 2.85 ± 0.31; Smad7 expression (quantitative RT-PCR) ([12]; 50 nM): 1.28 ± 0.10; Smad7 expression (quantitative RT-PCR) ([12]; 200 nM): 1.86 ± 0.19; Smad7 expression (quantitative RT-PCR) ([12]; 500 nM): 3.06 ± 0.28; TIMP-1 expression (quantitative RT-PCR) ([13]; 50 nM): 1.88 ± 0.34; TIMP-1 expression (quantitative RT-PCR) ([13]; 200 nM): 2.85 ± 0.38; TIMP-1 expression (quantitative RT-PCR) ([13]; 500 nM): 4.65 ± 0.38; TIMP-2 expression (quantitative RT-PCR) ([14]; 50 nM): 1.78 ± 0.18; TIMP-2 expression (quantitative RT-PCR) ([14]; 200 nM): 2.44 ± 0.31; TIMP-2 expression (quantitative RT-PCR) ([14]; 500 nM): 4.09 ± 0.36; MMP-9 expression (quantitative RT-PCR) ([15]; 50 nM): 0.49 ± 0.09; MMP-9 expression (quantitative RT-PCR) ([15]; 200 nM): 0.22 ± 0.03; inhibition of the expression of MMP-9 ([15]; 200 nM, RT-PCR): ~80%; MMP-9 expression (quantitative RT-PCR) ([15]; 500 nM): 0.19 ± 0.06; induction of chondrogenesis (metachromatic toluidine blue purple staining, proteoglycans) [16]: marked ability to induce chondrogenesis; formation of collagen type II (COL2A1), red fluorescence [17]: induce the formation of collagen type II; induction of SOX9 (Western blot) [18]: clear induction; induction of COL2A1 (Western blot) [19]: clear induction; induction of Aggrecan (Western blot) [20]: clear induction
